Columns and labels:
Format in all cases: in vivo
McIntosh® Apple trees [1] = experiment: Example 2: cyclanilide vs ReTain vs untreated on apple trees, results just before harvest; conditions: for % cumulative fruit dropped from tree / Fruit Starch Index: just before harvest
Description: An orchard of McIntosh® Apple trees at a stage where the apples were approximately 4.5 cm in diameter were sprayed with an aqueous suspension comprising cyclanilide and Regulaid®, a non-ionic surfactant (0.25% v/v) at several rates. About two months later, the following observations were made:
The process of Example 1 was repeated using an aqueous suspension comprising cyclanilide and a surfactant using an application rate of cyclanilide of 50 g/ha. As a comparison, ReTain® ([S]-trans-2-amino-4-(2-aminoethoxy)-3-butenoic acid) was applied according to commercially acceptable methods on another plot of trees and another plot of trees were left untreated.
Just before harvest, the following results were obtained: […]

McIntosh® Apple trees [2] = experiment: Example 1: spraying McIntosh apple trees with cyclanilide suspension, observations about two months later; conditions: about two months after spraying; for % fruit dropped from tree: with Regulaid 0.25% v/v
Description: An orchard of McIntosh® Apple trees at a stage where the apples were approximately 4.5 cm in diameter were sprayed with an aqueous suspension comprising cyclanilide and Regulaid®, a non-ionic surfactant (0.25% v/v) at several rates. About two months later, the following observations were made: […]

apple trees = experiment: General findings on apples treated by the method of the invention (description)
[3] = compared with untreated fruit and fruit treated by prior art compounds

| Structure (SMILES) | % cumulative fruit dropped from tree (McIntosh® Apple trees [1]; 125 g/ha of ingredient) [%] | Fruit Starch Index (McIntosh® Apple trees [1]; 125 g/ha of ingredient) | BRIX index (soluble solids) (McIntosh® Apple trees [2]; cyclanilide 50 g/ha) | Fruit Starch Index (McIntosh® Apple trees [2]; cyclanilide 50 g/ha) | % fruit dropped from tree (McIntosh® Apple trees [2]; cyclanilide 50 g/ha) [%] | BRIX index (soluble solids) (McIntosh® Apple trees [2]; cyclanilide 100 g/ha) | Fruit Starch Index (McIntosh® Apple trees [2]; cyclanilide 100 g/ha) | % fruit dropped from tree (McIntosh® Apple trees [2]; cyclanilide 100 g/ha) [%] | BRIX index (soluble solids) (McIntosh® Apple trees [2]; cyclanilide 200 g/ha) | Fruit Starch Index (McIntosh® Apple trees [2]; cyclanilide 200 g/ha) | % fruit dropped from tree (McIntosh® Apple trees [2]; cyclanilide 200 g/ha) [%] | starch content of apples (apple trees; compared with apples not treated) | color characteristic of apples (apple trees; compared with fruit treated by prior art compounds) | content of soluble solids as measured by the BRIX index (apple trees; [3]) | firmness of apples (apple trees; [3]) | amount of fruit drop as a function of the amount applied (apple trees; general statement) | % cumulative fruit dropped from tree (McIntosh® Apple trees [1]; 50 g/ha of ingredient) [%] | Fruit Starch Index (McIntosh® Apple trees [1]; 50 g/ha of ingredient) | color of the fruit (McIntosh® Apple trees [1]; cyclanilide 50 g/ha, compared with ReTain-treated fruit) | overall quality of fruit (McIntosh® Apple trees [1]; cyclanilide 50 g/ha, compared with untreated fruit and ReTain-treated fruit) |
| --- | --- | --- | --- | --- | --- | --- | --- | --- | --- | --- | --- | --- | --- | --- | --- | --- | --- | --- | --- | --- |
| NCCO/C=C/[C@H](N)C(=O)O (stereo in doubt) [ReTain ®, [S]-trans-2-amino-4-(2-aminoethoxy)-3-butenoic acid, reference compound] | 68.2 | 5.4 | – | – | – | – | – | – | – | – | – | – | – | – | – | – | – | – | – | – |
| O=C(O)C1(C(=O)Nc2ccc(Cl)cc2Cl)CC1 [cyclanilide, 1-(2,4-dichloroanilinocarbonyl)cyclopropane carboxylic acid] | – | – | 13 | 5.1 | 6 | 12.9 | 5.0 | 9.8 | 13.0 | 4.9 | 13.5 | lower starch content than apples not treated by the method of the invention | better color characteristic than fruit treated by prior art compounds | higher content of soluble solids than untreated fruit and than fruit treated by prior art compounds | greater firmness than untreated fruit and than fruit treated by prior art compounds | generally decreases as a function of the amount of cyclanilide applied | 47.4 | 5.0 | better than that of the fruit treated by the prior art compound ReTain® | better than that of the untreated fruit and that obtained from treatment by the prior art compound ReTain® |

Source: patent publication US20010044384A1, “Method of preventing premature fruit drop from apple trees” (priority 1998, published 2001)
